Results as given in patent publication US12662530B2, “Anti-ADM-antibodies binding to the free N-terminus for accelerated transition of ADM-Gly to bio-ADM in patients with ADM-Gly/ bio-ADM ratio above a threshold and combination with vitamin C” (SphingoTec GmbH, priority 2020, dated 2026).

Columns and labels:
septic patients = conditions: intravenous; placebo group 46%; cited from earlier work
native PAM = experiment: ADM maturation activity (AMA) of native PAM in Li-Heparin plasma with antibody and varying L-ascorbate; assay type: biochemical, human
Protocol: A serial antibody-dilution with concentrations of 0, 5, 10, 50, 100, 500 and 3000 μg/mL per well, respectively (in 20 μl) were pipetted into 96-well micro-titer plates. Then 160 μl PAM reaction buffer (100 mM Tris-HCl, 6.25 μM CuSO4, 62.5 μM amastatin, 250 μM leupeptin, 36 ng/mL ADM-Gly) with varying L-ascorbate concentrations was added to the wells and incubated for 15 min. Afterwards the reaction was started by addition of 20 μl of Li-Heparin plasma, containing native PAM Immediately after addition of plasma, 100 μl from each well were removed and inactivated by addition of EDTA (20 mM final concentration) to generate a t=0 minutes reaction point. Inactivated and non-inactivated samples were incubated for 40 minutes at 37° C. and the reaction in non-inactivated samples was stopped as described above. For quantification of produced ADM-NH2 the Sphingotest® bio-ADM Kit (Weber et al. 2017) was utilized according to manufacturer's manual. The ADM maturation activity (AMA) was calculated according to equation 1 (DF=dilution factor of sample matrix).

## O=C1O[C@H]([C@@H](O)CO)C(O)=C1O [ascorbate, L-ascorbic acid, reference compound]
Septic patients
  mortality at day 28: ~30%
Native PAM; ascorbate in the range of 0.4-2 mM, FIG. 15
  effect on ADM maturation activities: led to increasing ADM maturation activities
Native PAM; with and without HAM8101
  activity optimum of the amidating reaction (ascorbate concentration): 0.8 to 2 mM
